From patent US8415469B2, “Compounds and methods for kinase modulation, and indications therefor” (Plexxikon Inc., priority 2005, dated 2013)

Assays:
Assay type in all cases: biochemical
Kdr = target: T1, Kdr (Homo sapiens, UniProt P35968); experiment: Z'-Lyte FRET kinase assay (Invitrogen), Kdr; conditions: read-out: IC50, activity toward kinase Kdr
T1 construct: purchased Invitrogen (assay run by Invitrogen)

B-Raf V600E = target: T2, B-Raf V600E (Homo sapiens, UniProt P15056, V600E); experiment: AlphaScreen kinase assay, B-Raf V600E; conditions: read-out: IC50, activity toward kinase B-Raf V600E
T2 construct: P4254. pFastBacBD-CDC37 BRAF D437-K722-X, V600E; His6 with pFastBac HT leader (TEV site) (N); made in house; host or cells: Sf9 (baculovirus; chaperone CDC37 co-expressed)

IKK beta = target: T3, IKK beta (Homo sapiens, UniProt O14920); experiment: AlphaScreen kinase assay, IKK beta; conditions: read-out: IC50, activity toward kinase IKK beta
T3 sequence (O14920 1-756): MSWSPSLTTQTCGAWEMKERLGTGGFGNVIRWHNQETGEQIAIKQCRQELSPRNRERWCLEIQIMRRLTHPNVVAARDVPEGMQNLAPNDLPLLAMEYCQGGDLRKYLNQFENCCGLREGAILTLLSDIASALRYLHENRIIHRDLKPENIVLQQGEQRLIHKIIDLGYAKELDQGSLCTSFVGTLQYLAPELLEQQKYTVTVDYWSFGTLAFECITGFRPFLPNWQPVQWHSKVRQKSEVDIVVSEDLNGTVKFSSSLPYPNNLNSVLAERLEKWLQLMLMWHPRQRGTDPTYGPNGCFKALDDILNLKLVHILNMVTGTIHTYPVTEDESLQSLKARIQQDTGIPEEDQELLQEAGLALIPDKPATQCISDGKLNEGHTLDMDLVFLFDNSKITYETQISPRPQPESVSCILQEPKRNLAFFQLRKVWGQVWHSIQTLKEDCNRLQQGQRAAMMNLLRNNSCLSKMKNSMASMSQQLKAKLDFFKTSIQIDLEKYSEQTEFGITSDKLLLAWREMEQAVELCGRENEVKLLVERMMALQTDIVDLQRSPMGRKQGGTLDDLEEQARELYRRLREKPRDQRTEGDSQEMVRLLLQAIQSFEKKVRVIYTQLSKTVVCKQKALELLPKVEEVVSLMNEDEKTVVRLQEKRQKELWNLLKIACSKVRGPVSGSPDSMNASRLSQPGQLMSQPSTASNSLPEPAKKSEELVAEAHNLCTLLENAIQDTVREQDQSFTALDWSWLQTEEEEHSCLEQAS
Text: (§2) AlphaScreen assay was used to screen additional kinases. The assay is similarly dependent on the phosphorylation of a peptide substrate. In this assay, an antibody that recognizes phosphorylated substrate is bound to an acceptor bead. The peptide substrate is attached to biotin, which binds to a donor head that contains streptavidin. Thus phosphorylated substrate is bound by antibody and streptavidin, bringing the donor and acceptor heads into close proximity when kinase is not inhibited. The donor produces singlet oxygen which results in emission from the acceptor when they are in close proximity. Conversely, when kinase is inhibited, the donor and acceptor beads are not associated and the emission from the acceptor is reduced.
(§3) AlphaScreen assays were done using compounds dissolved in DMSO to a concentration of 20 mM. The compounds were diluted accordingly to the desired final concentrations in each sample well, using 1:3 serial dilution for a total of 8 concentration points. Plates were prepared such that each kinase reaction is 20 μl in 1× kinase buffer, 5% DMSO and 10 μM ATP. After incubation of the kinase reaction for 1 hour at room temperature, 5 μl of donor beads in stop buffer (50 mM EDTA in 1× kinase buffer) was added, the sample was mixed and incubated for 20 minutes at room temperature before adding 5 μl of acceptor beads in stop buffer. The samples were incubated for 60 minutes at room temperature and the signal per well was read on AlphaQuest reader.

Btk = target: T4, Btk (Homo sapiens, UniProt Q06187); experiment: Z'-Lyte FRET kinase assay (Invitrogen), Btk; conditions: read-out: IC50, activity toward kinase Btk
T4 construct: purchased Invitrogen (assay run by Invitrogen)

FGFR1 = target: T5, FGFR1 (Homo sapiens, UniProt P11362, C488A/C584S); experiment: AlphaScreen kinase assay, FGFR1; conditions: read-out: IC50, activity toward kinase FGFR
T5 construct: P1351.pET N6 BI-PTP FGFR A458-E765-X C488A, C584S; made in house; host or cells: E. coli (PTP1B co-expressed)

Ret = target: T6, Ret (Homo sapiens, UniProt P07949); experiment: AlphaScreen kinase assay, Ret; conditions: read-out: IC50, activity toward kinase Ret
T6 construct: P1378.pET-SF BI-PTP RET H661-R1012 HIS; made in house
T6 sequence (P07949 with tags, fused parts or gaps): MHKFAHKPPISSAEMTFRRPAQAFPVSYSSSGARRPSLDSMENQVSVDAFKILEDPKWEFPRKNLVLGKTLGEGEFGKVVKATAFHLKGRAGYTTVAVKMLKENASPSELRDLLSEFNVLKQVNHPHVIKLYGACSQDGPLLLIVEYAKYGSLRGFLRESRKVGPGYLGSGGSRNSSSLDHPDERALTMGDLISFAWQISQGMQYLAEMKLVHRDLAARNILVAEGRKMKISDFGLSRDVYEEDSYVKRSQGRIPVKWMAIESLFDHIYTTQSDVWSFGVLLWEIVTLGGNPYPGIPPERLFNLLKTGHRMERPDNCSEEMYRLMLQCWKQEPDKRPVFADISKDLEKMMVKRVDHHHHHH

MAP2K1 = target: T7, MAP2K1 (Homo sapiens, UniProt Q02750); experiment: Z'-Lyte FRET kinase assay (Invitrogen), MAP2K1; conditions: read-out: IC50, activity toward kinase MAP2K1
T7 construct: purchased Invitrogen (assay run by Invitrogen)

Stk6 = target: T8, Stk6 (Homo sapiens, UniProt O14965); experiment: Z'-Lyte FRET kinase assay (Invitrogen), Stk6; conditions: read-out: IC50, activity toward kinase Stk6
T8 construct: purchased Invitrogen (Carlsbad, Calif.), screening service
T8 sequence (O14965 1-403): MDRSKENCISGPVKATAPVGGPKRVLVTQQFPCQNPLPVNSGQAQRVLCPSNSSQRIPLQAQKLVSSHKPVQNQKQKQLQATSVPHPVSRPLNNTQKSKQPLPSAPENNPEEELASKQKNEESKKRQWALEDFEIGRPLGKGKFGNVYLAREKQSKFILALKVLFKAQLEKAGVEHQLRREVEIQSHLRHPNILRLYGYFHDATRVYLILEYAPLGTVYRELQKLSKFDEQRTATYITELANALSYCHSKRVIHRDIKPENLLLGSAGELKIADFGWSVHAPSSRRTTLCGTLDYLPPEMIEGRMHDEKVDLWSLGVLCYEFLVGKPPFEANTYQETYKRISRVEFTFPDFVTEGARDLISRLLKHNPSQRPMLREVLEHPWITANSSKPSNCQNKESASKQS

Kit = target: T9, Kit (Homo sapiens, UniProt P10721); experiment: AlphaScreen kinase assay, Kit; conditions: read-out: IC50, activity toward kinase Kit
T9 construct: P1332.N6 BI PTP KIT M552-K948-X COD; His6 (N); made in house; host or cells: E. coli (PTP1B co-expressed)

Akt3 = Akt3 (Homo sapiens, UniProt Q9Y243); experiment: AlphaScreen kinase assay, Akt3; conditions: read-out: IC50, activity toward kinase Akt3
How it was run: (§1)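 AlphaScreen read-out: acceptor-bead emission falls when kinase is inhibited. Biotin-peptide substrate captured on streptavidin donor beads, phospho-specific antibody on acceptor beads. 8 concentrations, 1:3 dilution series, from 20 mM DMSO stocks.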

Flt1 = target: T10, Flt1 (Homo sapiens, UniProt P17948); experiment: AlphaScreen kinase assay, Flt1; conditions: read-out: IC50, activity toward kinase Flt1
T10 construct: P1826.pETN6 BI-PTP FLT1 M799-D1165-X WT; His6 (N); made in house; host or cells: E. coli (PTP1B co-expressed)
T10 sequence (P17948 with tags, fused parts or gaps): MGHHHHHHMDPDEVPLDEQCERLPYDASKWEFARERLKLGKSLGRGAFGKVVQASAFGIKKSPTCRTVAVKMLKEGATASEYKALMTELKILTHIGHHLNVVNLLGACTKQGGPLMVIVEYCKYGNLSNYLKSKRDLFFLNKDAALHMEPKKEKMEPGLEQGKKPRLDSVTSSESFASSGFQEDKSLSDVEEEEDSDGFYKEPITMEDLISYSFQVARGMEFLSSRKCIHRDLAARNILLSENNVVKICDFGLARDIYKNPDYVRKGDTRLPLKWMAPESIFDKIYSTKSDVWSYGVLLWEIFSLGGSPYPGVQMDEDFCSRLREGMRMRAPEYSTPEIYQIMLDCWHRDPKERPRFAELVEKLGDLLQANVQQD
Text: as §2, §3

Jnk3 = target: T11, Jnk3 (Homo sapiens, UniProt P53779); experiment: AlphaScreen kinase assay, Jnk3; conditions: read-out: IC50, activity toward kinase Jnk3
T11 construct: purchased Upstate Biotechnology

c-Raf-1 = target: T12, c-Raf-1 (Homo sapiens, UniProt P04049); experiment: AlphaScreen kinase assay, c-Raf-1; conditions: read-out: IC50, activity toward kinase c-Raf-1
T12 construct: purchased Upstate Biotechnology

B-Raf = target: T13, B-Raf (Homo sapiens, UniProt P15056); experiment: AlphaScreen kinase assay, B-Raf; conditions: read-out: IC50, activity toward kinase B-Raf
T13 construct: purchased Upstate Biotechnology

MAP4K4 = MAP4K4 (Homo sapiens, UniProt O95819); experiment: AlphaScreen kinase assay, MAP4K4; conditions: read-out: IC50, activity toward kinase MAP4K4
Met = target: T14, Met (Homo sapiens, UniProt P08581); experiment: AlphaScreen kinase assay, Met; conditions: read-out: IC50, activity toward kinase Met
T14 construct: P1818.pETN6 BI-PTP MET G1056-G1364-X WT; His6 (N); made in house; host or cells: E. coli (PTP1B co-expressed)
How it was run: as §1

Measured: IC50

T1 sequence (P35968 20-1356): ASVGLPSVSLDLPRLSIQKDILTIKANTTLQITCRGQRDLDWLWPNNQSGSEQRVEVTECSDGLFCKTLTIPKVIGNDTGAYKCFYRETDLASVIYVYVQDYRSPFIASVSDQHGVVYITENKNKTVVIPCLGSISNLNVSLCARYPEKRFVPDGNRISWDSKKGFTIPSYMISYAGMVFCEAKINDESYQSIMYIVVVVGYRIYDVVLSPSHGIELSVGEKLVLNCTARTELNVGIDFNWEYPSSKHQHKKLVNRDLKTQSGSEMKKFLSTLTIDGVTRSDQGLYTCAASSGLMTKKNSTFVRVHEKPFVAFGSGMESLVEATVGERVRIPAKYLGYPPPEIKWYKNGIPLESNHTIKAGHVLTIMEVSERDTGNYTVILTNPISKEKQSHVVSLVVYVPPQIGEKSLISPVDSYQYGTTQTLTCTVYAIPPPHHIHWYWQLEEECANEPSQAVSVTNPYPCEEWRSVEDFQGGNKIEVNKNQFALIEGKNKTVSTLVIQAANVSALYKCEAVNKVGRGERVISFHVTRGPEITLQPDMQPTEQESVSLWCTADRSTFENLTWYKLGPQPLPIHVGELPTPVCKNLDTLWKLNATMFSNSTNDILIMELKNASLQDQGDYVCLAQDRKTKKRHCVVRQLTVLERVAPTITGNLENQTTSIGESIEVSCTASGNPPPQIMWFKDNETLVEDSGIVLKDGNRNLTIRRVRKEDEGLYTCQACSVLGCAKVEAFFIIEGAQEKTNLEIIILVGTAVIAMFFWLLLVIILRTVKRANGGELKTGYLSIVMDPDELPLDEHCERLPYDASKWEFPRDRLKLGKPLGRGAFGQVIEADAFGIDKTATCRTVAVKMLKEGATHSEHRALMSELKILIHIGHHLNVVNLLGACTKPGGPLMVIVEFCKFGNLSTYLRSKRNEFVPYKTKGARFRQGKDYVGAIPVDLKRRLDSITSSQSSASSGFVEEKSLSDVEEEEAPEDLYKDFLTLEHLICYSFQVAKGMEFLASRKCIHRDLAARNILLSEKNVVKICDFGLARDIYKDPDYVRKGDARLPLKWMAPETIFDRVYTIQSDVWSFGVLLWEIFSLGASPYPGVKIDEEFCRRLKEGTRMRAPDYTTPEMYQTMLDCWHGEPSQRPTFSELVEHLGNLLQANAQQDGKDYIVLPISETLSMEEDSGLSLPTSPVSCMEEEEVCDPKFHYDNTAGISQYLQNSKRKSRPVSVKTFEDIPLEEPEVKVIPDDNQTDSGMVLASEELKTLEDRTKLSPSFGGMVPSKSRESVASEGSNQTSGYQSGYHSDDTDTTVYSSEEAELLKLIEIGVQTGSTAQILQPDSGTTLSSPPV
T11 sequence (P53779 whole entry): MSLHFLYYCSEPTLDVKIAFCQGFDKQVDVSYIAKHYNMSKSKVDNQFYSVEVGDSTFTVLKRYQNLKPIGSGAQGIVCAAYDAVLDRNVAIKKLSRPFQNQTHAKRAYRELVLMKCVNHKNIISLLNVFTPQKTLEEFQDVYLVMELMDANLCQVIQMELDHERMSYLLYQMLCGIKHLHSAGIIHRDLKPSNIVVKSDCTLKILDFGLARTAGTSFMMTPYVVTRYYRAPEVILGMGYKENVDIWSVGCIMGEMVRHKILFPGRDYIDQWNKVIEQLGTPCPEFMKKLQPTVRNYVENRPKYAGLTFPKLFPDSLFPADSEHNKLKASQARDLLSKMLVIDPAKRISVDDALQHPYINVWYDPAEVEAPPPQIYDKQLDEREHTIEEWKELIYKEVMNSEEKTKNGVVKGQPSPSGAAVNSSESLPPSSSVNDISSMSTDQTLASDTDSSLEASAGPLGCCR
T9 sequence (P10721 with tags, fused parts or gaps): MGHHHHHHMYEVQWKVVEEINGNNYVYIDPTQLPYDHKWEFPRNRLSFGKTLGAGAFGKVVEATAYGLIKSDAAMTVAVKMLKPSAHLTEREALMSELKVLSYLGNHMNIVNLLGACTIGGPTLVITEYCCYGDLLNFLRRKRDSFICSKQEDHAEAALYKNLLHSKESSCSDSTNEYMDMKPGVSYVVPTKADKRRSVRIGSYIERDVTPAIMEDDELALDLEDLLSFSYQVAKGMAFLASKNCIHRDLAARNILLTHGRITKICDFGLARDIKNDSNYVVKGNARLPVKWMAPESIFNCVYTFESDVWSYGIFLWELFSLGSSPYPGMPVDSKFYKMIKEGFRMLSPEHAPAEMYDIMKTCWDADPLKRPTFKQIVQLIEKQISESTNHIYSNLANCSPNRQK
T5 sequence (P11362 458-765 C488A/C584S): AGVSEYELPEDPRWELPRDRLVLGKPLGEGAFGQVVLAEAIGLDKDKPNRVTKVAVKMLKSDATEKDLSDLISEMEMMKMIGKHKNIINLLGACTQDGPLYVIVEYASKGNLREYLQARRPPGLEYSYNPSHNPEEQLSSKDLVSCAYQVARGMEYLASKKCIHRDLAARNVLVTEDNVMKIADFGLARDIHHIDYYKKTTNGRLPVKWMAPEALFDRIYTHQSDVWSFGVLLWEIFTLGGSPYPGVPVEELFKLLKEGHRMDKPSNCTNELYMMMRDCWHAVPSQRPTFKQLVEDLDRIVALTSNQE
Sequence of Akt3 (Q9Y243 whole entry): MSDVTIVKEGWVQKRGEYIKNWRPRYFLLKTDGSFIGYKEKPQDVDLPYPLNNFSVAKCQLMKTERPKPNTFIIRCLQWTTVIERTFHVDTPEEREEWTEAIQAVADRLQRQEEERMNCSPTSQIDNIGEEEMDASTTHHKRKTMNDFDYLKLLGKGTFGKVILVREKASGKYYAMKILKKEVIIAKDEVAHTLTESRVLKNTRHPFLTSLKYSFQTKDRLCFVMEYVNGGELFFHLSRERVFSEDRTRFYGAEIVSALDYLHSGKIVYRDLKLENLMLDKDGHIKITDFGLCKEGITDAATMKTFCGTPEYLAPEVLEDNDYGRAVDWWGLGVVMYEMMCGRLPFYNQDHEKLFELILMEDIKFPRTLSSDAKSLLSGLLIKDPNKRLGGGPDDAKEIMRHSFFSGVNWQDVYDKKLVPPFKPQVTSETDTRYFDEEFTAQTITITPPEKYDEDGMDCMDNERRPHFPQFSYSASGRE
T7 sequence (Q02750 whole entry): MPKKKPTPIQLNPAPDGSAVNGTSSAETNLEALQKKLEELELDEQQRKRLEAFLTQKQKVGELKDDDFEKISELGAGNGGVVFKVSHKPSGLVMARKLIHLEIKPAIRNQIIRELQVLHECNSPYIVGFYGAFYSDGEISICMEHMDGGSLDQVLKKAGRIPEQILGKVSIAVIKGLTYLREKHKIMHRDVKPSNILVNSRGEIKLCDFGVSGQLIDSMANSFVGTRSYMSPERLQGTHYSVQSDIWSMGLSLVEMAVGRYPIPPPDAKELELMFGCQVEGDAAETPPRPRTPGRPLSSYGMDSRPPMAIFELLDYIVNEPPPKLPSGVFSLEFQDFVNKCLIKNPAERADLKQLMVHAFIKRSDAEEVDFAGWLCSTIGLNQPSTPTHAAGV
T2 sequence (P15056 with tags, fused parts or gaps V600E): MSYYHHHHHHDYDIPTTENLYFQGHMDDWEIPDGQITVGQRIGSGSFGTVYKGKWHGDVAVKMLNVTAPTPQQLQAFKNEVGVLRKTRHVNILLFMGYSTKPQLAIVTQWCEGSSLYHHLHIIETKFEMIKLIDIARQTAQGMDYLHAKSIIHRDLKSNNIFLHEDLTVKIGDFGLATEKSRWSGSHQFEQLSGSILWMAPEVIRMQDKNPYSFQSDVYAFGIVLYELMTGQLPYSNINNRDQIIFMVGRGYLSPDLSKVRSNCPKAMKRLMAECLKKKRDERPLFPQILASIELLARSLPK
T13 sequence (P15056 whole entry): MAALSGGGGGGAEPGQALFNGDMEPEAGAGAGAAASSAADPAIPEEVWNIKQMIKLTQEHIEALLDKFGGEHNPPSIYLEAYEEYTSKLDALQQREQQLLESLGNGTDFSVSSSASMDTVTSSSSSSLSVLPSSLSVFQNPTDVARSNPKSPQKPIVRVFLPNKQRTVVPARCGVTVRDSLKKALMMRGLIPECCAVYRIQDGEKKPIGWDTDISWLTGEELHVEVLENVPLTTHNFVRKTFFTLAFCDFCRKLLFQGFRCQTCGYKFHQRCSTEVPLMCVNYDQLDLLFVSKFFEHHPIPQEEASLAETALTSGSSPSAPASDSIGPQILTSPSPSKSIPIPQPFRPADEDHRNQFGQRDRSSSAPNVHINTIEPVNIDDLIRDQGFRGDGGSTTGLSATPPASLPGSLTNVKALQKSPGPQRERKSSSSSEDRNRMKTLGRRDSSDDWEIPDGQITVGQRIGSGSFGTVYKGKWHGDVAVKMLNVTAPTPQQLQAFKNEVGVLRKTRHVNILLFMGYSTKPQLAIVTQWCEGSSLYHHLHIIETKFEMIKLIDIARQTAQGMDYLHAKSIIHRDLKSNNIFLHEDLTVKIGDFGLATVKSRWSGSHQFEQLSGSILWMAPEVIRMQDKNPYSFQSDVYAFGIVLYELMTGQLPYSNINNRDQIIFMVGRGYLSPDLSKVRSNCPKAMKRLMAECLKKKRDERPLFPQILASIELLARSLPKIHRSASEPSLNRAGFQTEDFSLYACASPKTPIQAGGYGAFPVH
T14 sequence (P08581 with tags, fused parts or gaps): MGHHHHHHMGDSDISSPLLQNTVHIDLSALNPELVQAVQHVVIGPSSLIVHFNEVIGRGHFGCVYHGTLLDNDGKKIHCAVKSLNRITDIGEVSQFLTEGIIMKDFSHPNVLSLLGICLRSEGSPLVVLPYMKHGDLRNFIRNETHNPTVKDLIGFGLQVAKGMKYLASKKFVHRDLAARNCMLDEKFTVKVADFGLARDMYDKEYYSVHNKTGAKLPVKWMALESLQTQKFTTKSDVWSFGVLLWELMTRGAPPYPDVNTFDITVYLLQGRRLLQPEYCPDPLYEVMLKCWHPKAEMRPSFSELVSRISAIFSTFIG

COc1cccc(C(=O)c2c[nH]c3nccc(-c4ccc(C(N)=O)cc4)c23)c1 [Compound P-0073]
≤ 10 µM: Kdr | B-Raf V600E | IKK beta | Btk | FGFR1 | Ret

Nc1cccc(C(=O)c2c[nH]c3ncccc23)c1 [Compound P-0096]
≤ 10 µM: Kdr | IKK beta | FGFR1 | Ret

C=Cc1ccc(-c2ccnc3[nH]ccc23)cc1 [Compound P-0098]
≤ 10 µM: Kdr | IKK beta | MAP2K1 | Stk6

Cc1ccc(-c2ccnc3[nH]ccc23)cc1N [Compound P-0111]
≤ 10 µM: Kdr | IKK beta | MAP2K1 | Stk6

Clc1ccc(-c2ccnc3[nH]ccc23)cn1 [Compound P-0127]
≤ 10 µM: Kdr | Kit | IKK beta | Stk6 | Akt3 | Flt1

c1cc2cc(-c3ccsc3)cnc2[nH]1 [Compound P-0133]
≤ 10 µM: Kdr | Kit | Jnk3 | IKK beta | Stk6

Cc1nc(-c2ccnc3[nH]ccc23)no1 [Compound P-0163]
≤ 10 µM: Kdr | IKK beta | Stk6

N#CCc1ccc(-c2c[nH]c3ncccc23)cc1 [Compound P-0164]
≤ 10 µM: Kdr | IKK beta | Stk6

Fc1cc(F)cc(-c2ccnc3[nH]cc(Sc4ccc(Cl)cc4)c23)c1 [Compound P-0172]
≤ 10 µM: Kdr | IKK beta | Stk6

CS(=O)(=O)c1ccc(-c2c[nH]c3ncccc23)cc1 [Compound P-0177]
≤ 10 µM: Kdr | IKK beta | MAP2K1 | Stk6 | Flt1

c1csc(-c2cnc3[nH]ccc3c2)c1 [Compound P-0179]
≤ 10 µM: Kdr | Kit | Jnk3 | IKK beta | Ret | Stk6

COc1cccc(-c2c[nH]c3ncccc23)c1 [Compound P-0216]
≤ 10 µM: Kdr | Kit | IKK beta

CCS(=O)(=O)c1ccc(-c2c[nH]c3ncccc23)cc1 [Compound P-0272]
≤ 10 µM: IKK beta | Stk6

c1ccc2sc(-c3ccnc4[nH]ccc34)cc2c1 [Compound P-0404]
≤ 10 µM: Kit | IKK beta | FGFR1 | Akt3 | Flt1

C(#Cc1ccnc2[nH]ccc12)c1ccccc1 [Compound P-0436]
≤ 10 µM: IKK beta | Stk6 | Akt3

CS(=O)(=O)c1ccc(-c2cnc3[nH]ccc3c2)cc1 [Compound P-0682]
≤ 10 µM: Kit | Jnk3 | IKK beta | Ret

CCCNS(=O)(=O)c1ccc(F)c(C(=O)c2c[nH]c3ncc(-c4cccnc4)cc23)c1F [Compound P-0896]
≤ 10 µM: c-Raf-1 | B-Raf V600E | IKK beta | B-Raf | FGFR1 | MAP4K4

CN(C)c1ccc(Nc2cnc3[nH]ccc3c2)cc1 [Compound P-0962]
≤ 10 µM: Kdr | Kit | Jnk3 | B-Raf V600E | IKK beta | Met | Akt3 | Flt1
